In brackets after ≈: the same amount, converted by molar mass. Entries after “also recorded” stand apart in the source; their conditions may differ. Where a name gives a salt, the structure may show the parent alone.
Columns and labels:
Escherichia coli 0-78 = experiment: Antimicrobial spectrum, minimum inhibition concentration; assay type: cell-based; conditions: 078
Escherichia coli 0-139 = experiment: as above; assay type: cell-based; conditions: 0139
[1] = Absorption, residue and cross resistance as agent for swine scours
Escherichia coli 0-16 = experiment: Antimicrobial spectrum, minimum inhibition concentration; assay type: cell-based; conditions: 016
mice = experiment: Toxicity (LD50) against mice; assay type: in vivo; conditions: intraperitoneal administration
Text: (§1) As is well known, LD50, or the median lethal dose, is the dose which is fatal to 50% of the test animals, and the larger the LD50 is, the lower the toxicity of the test material is.

[2] = Toxicity (LD50) against mice; assay type: in vivo; conditions: mouse, in vivo
Text: as §1

[3] = tested on: Staphylococcus aureus 209-p; experiment: Antimicrobial spectrum, minimum inhibition concentration; assay type: cell-based
[4] = tested on: Aspergillus fumigatus Saito; experiment: as above; assay type: cell-based
[5] = Growth (increased body weights) of starting chicks raised on mixed feed for 10 weeks; assay type: in vivo; conditions: for Weight Increase Index: non-added group = 100.0
Text: An amount of 2,3,3-triiodo-allyl-methyl ether as shown in Table 3 was uniformly mixed into one ton of a poultry compound feed. The 2,3,3-triiodo-allyl-methyl ether had been premixed with 100 times its weight of defatted rice bran. Using this mixed feed, 20 starting chicks were raised for 10 weeks.

Candida albicans Totuka = experiment: Antimicrobial spectrum, minimum inhibition concentration; assay type: cell-based
[6] = tested on: Streptococcus haemolyticus cook; experiment: as above; assay type: cell-based
Escherichia coli 0-20 = experiment: as above; assay type: cell-based; conditions: 020
Escherichia coli 0-135 = experiment: as above; assay type: cell-based; conditions: 0135
[7] = Absorption, residue and cross resistance as feed additive (poultry)
[8] = Field clinical test to treat the scours of pigs; assay type: in vivo; set-up: key to Severity of Conditions, 4th day / Severity of Conditions, 5th day: +++: watery feces; ++: muddy feces; +: soft feces; --: normal feces
Description: In use, 2,3,3-triiodo-allyl-methyl ether in crystal form is formed into a fine powder, and either coated with gelatin to a content of about 10% of the ether powder or diluted 10-fold with lactose. It is used in an amount of about 10 mg or more per kilogram of the body weight of the swine in one dosage, and may be increased according to the case. Usually, it is administered twice on the first day, and thereafter, once a day for 3 to 4 days. By this method of treatment, the disease is generally cured in about 5 days.
2,3,3-triiodo-allyl-methyl ether was finely divided in a mortar, and then diluted 10-fold with lactose. A field clinical test was performed using this formulation to treat the scours of 41 pigs. The formulation was administered orally twice on the first day and once a day for the next 3 to 4 days. In this table, the symbols +++, ++, + and -- have the following meanings: […]

Escherichia coli 0-83 = experiment: Antimicrobial spectrum, minimum inhibition concentration; assay type: cell-based; conditions: 083
[9] = tested on: Cryptococcus neoformans 301; experiment: as above; assay type: cell-based
El-tor vibrio = experiment: as above; assay type: cell-based
Salmonella typhi O-901-W = experiment: as above; assay type: cell-based; conditions: Salmonella enterica
Escherichia coli 0-142 = experiment: as above; assay type: cell-based; conditions: 0142
Tricophyton asteroides = experiment: as above; assay type: cell-based
[10] = Comparative experiment: effect of kanamycin sulfate against scours of swine (control); assay type: in vivo; set-up: key to Severity of Conditions, 1st day / Severity of Conditions, 2nd day / Severity of Conditions, 3rd day / Severity of Conditions, 4th day / Severity of Conditions, 5th day: +++: watery feces; ++: muddy feces; +: soft feces; --: normal feces; conditions: individual swine (one table line each), single dosage 60-150 mg/Kg
Text: Effect of Kanamycin Sulfate against Scours of […]

[11] = chicks, inferred from body weight at great quantities
[12] = individual pigs (one table line each), oral, single dosage 35-200 mg/Kg, diluted 10-fold with lactose
[13] = chicks, comparative antibiotic, 20 g

COCC(I)=C(I)I [2,3,3-triiodo-allyl-methyl ether, methyl-2,3,3-triiodoallylether]
MIC (Escherichia coli 0-78): 3.12 µg/mL (≈ 6.94 µM) | MIC (Escherichia coli 0-139): 12.5 µg/mL (≈ 27.8 µM) | Cross resistance ([1]; agent for swine scours): does not have cross resistance | Absorption by the digestive tract of swine ([1]; swine): hardly absorbed | Build-up of residue ([1]; swine): does not cause a build-up of residue | MIC (Escherichia coli 0-16): 6.25 µg/mL (≈ 13.9 µM) | LD50 (mice): 50 to 100 mg/kg | LD50 ([2]; ip, intraperitoneal administration): 50 to 100 mg/kg | LD50 ([2]; oral administration): > 1000 mg/kg | selectivity ratio ([2]; times or more as great, read-out: LD50 in oral administration relative to that in intraperitoneal administration): 10 to 20 | MIC [3]: 6.25 µg/mL (≈ 13.9 µM) | MIC [4]: 3.12 µg/mL (≈ 6.94 µM) | Body weight after 10 weeks compared with the group not given the additive ([5]; all groups fed the additive): showed an increase in body weight after 10 weeks | Body weight, 2nd week ([5]; chicks, 1 g/ton of feed): 120.4 | Body weight, 4th week ([5]; chicks, 1 g/ton of feed): 357.4 | Body weight, 6th week ([5]; chicks, 1 g/ton of feed): 682.4 | Body weight, 8th week ([5]; chicks, 1 g/ton of feed): 1084.4 | Body weight, 10th week ([5]; chicks, 1 g/ton of feed): 1329.7 | Weight Increase Index ([5]; chicks, 1 g/ton of feed): 109.9 | Body weight, 2nd week ([5]; chicks, 5 g/ton of feed): 125.9 | Body weight, 4th week ([5]; chicks, 5 g/ton of feed): 362.1 | Body weight, 6th week ([5]; chicks, 5 g/ton of feed): 706.2 | Body weight, 8th week ([5]; chicks, 5 g/ton of feed): 1099.3 | Body weight, 10th week ([5]; chicks, 5 g/ton of feed): 1408.4 | Weight Increase Index ([5]; chicks, 5 g/ton of feed): 116.4 | Body weight, 2nd week ([5]; chicks, 10 g/ton of feed): 147.6 | Body weight, 4th week ([5]; chicks, 10 g/ton of feed): 388.0 | Body weight, 6th week ([5]; chicks, 10 g/ton of feed): 764.0 | Body weight, 8th week ([5]; chicks, 10 g/ton of feed): 1150.7 | Body weight, 10th week ([5]; chicks, 10 g/ton of feed): 1512.1 | Weight Increase Index ([5]; chicks, 10 g/ton of feed): 125.0 | Body weight, 2nd week ([5]; chicks, 20 g/ton of feed): 120.4 | Body weight, 4th week ([5]; chicks, 20 g/ton of feed): 350.2 | Body weight, 6th week ([5]; chicks, 20 g/ton of feed): 647.3 | Body weight, 8th week ([5]; chicks, 20 g/ton of feed): 990.7 | Body weight, 10th week ([5]; chicks, 20 g/ton of feed): 1303.1 | Weight Increase Index ([5]; chicks, 20 g/ton of feed): 109.7 | Body weight, 2nd week ([5]; chicks, 50 g/ton of feed): 124.3 | Body weight, 4th week ([5]; chicks, 50 g/ton of feed): 359.4 | Body weight, 6th week ([5]; chicks, 50 g/ton of feed): 671.3 | Body weight, 8th week ([5]; chicks, 50 g/ton of feed): 1030.5 | Body weight, 10th week ([5]; chicks, 50 g/ton of feed): 1382.2 | Weight Increase Index ([5]; chicks, 50 g/ton of feed): 114.3 | Body weight, 2nd week ([5]; chicks, 100 g/ton of feed): 128.2 | Body weight, 4th week ([5]; chicks, 100 g/ton of feed): 349.8 | Body weight, 6th week ([5]; chicks, 100 g/ton of feed): 663.1 | Body weight, 8th week ([5]; chicks, 100 g/ton of feed): 946.7 | Body weight, 10th week ([5]; chicks, 100 g/ton of feed): 1223.7 | Weight Increase Index ([5]; chicks, 100 g/ton of feed): 101.2 | Body weight, 2nd week ([5]; chicks, 200 g/ton of feed): 106.5 | Body weight, 4th week ([5]; chicks, 200 g/ton of feed): 343.2 | Body weight, 6th week ([5]; chicks, 200 g/ton of feed): 686.3 | Body weight, 8th week ([5]; chicks, 200 g/ton of feed): 1039.6 | Body weight, 10th week ([5]; chicks, 200 g/ton of feed): 1298.3 | Weight Increase Index ([5]; chicks, 200 g/ton of feed): 107.3 | Effect of great quantities on body weight ([5]; chicks, addition of great quantities): did not cause a decrease in body weight | Absorption by the digestive tract [5, 11]: little absorbed | Side-effects [5, 11]: does not have side-effects | MIC (Candida albicans Totuka): 3.12 µg/mL (≈ 6.94 µM) | MIC [6]: 12.5 µg/mL (≈ 27.8 µM) | MIC (Escherichia coli 0-20): 0.78 µg/mL (≈ 1.73 µM) | MIC (Escherichia coli 0-135): 3.12 µg/mL (≈ 6.94 µM) | Cross resistance ([7]; feed additive for poultry): does not have cross resistance | Absorption by the digestive tract of poultry ([7]; poultry): hardly absorbed | Residue build-up ([7]; poultry): free from residue build-up | Effect against the diarrhea of swine ([8]; Table 4, comparison with kanamycin sulfate): superior effect | Severity of Conditions, 4th day [8, 12]: -- and + and ++ | Severity of Conditions, 5th day [8, 12]: -- | Time in which the disease is generally cured ([8]; swine scours, about 10 mg or more per kg, twice first day, then once a day for 3 to 4 days): about 5 days | MIC (Escherichia coli 0-83): 12.5 µg/mL (≈ 27.8 µM) | MIC [9]: 0.78 µg/mL (≈ 1.73 µM) | MIC (El-tor vibrio): 3.12 µg/mL (≈ 6.94 µM) | MIC (Salmonella typhi O-901-W): 3.12 µg/mL (≈ 6.94 µM) | MIC (Escherichia coli 0-142): 6.25 µg/mL (≈ 13.9 µM) | MIC (Tricophyton asteroides): 1.56 µg/mL (≈ 3.47 µM)

NC[C@H]1O[C@H](O[C@H]2[C@H](O)[C@@H](O[C@H]3O[C@H](CO)[C@@H](O)[C@H](N)[C@H]3O)[C@H](N)C[C@@H]2N)[C@H](O)[C@@H](O)[C@@H]1O [Kanamycin Sulfate]
Evaluation [10]: Cured; also recorded: Deaths | Severity of Conditions, 1st day [10]: ++ and + and +++ | Severity of Conditions, 2nd day [10]: ++ and + and -- and +++ | Severity of Conditions, 3rd day [10]: + and ++ and -- | Severity of Conditions, 4th day [10]: -- and + and ++ | Severity of Conditions, 5th day [10]: -- and + and ++

CC1(C)S[C@@H]2[C@H](NC(=O)Cc3ccccc3)C(=O)N2[C@H]1C(=O)O [Procaine Pencillin G]
Body weight, 2nd week [5, 13]: 127.3 | Body weight, 4th week [5, 13]: 374.6 | Body weight, 6th week [5, 13]: 664.2 | Body weight, 8th week [5, 13]: 1012.9 | Body weight, 10th week [5, 13]: 1324.0 | Weight Increase Index [5, 13]: 109.5
